Reference: patent publication US11304956B2, “Use of 7-bromo-5-(O-chlorophenyl)-3-propoxy-1,2-dihydro-3H-1,4-benzodiazepin-2-one for inhibition of neuropathic pain and seizures of different etiology” (priority 2016, dated 2022)

Assays:
[1] = system: thermal tail flick test in rats; assay: Model of thermal stimulation (tail-flick); assay type: in vivo; details: n=10
From the text: The problem was solved by experimental study of the antinociceptive action of the test compound 1 on the model of NP in rats and on the model of pain with the participation of central mechanisms, in particular, thermal tail flick test in rats. Based on the available data on the positive response of constant pain to anticonvulsants in the acute and paroxysmal phase and considering structure 1, we performed an evaluation of the anticonvulsant action of the compound on models of pentamethylenetetrazol-induced convulsions and seizures caused by maximal electroshock (MES). We have taken into account the possible side reaction (ulcerogenic effect) of the compound in experimental animals, expressed in the formation of defects in the mucous membrane of the gastrointestinal tract or in provocation of already existing peptic ulcer relapses. The probability of ulcers formation of medicinal origin is especially high during administration of non-steroidal anti-inflammatory drugs in high doses and in combination with their long-term use in the form of tablets.
A more pronounced effect was after parenteral administration (see Table 2). Control: solvent (twin, distilled water, pH-corrector). Results of the study of Compound 1 and ketorolac analgesic effects on the model of thermal stimulation (tail-flick) as degree of pain sensitivity threshold increase in relation to the initial level (%), n=10, are given in Table 2.

gastric mucosa [2] = assay: Ulcerogenic effect, chronic experiment (28 days intragastric); assay type: in vivo, rats; details: 0.5 mg/kg intragastrally for 28 days, n = 14
Method: (§1) Evaluation of ulcerogenic action was carried out on a 4-score scale:
(§2) 0 score—no damage; 0.5 score—hyperemia (blood vessels overflow)
(§3) 1 score—single minor lesions (1-3 point hemorrhages or small ulcers)
(§4) 2 score—multiple (more than 3) lesions (erosions, pinpoint hemorrhages) or 1 large ulcer
(§5) 3 score—significant and massive damages (erosions, hemorrhages) of the gastric mucosa with significant size (diameter up to 4 mm)
(§6) 4 score—gross injuries (massive hemorrhages, erosions, perforations) that cover the entire surface of the gastric mucosa.
(§7) The average multiplicity index of damage to the gastric mucosa (the number of ulcers per animal) and the severity of the damage (in scores) were determined.
To determine the safety of this compound in a chronic trial during long-term administration, it was administered to rats for 28 days at a dose close to ED50 by analgesic effect (0.5 mg/kg).
The data presented indicate that there is no serious damage to the stomach from the test compound, even when administered at very high doses, several orders higher than the average effective doses, and which are close to the upper limit of permitted doses that can be administered to rats once. Therefore, at the next stage it became reasonable to determine the effect of Compound 1 on the stomach after prolonged use (28 days) in an average effective dose of 0.5 mg/kg.

formalin test in mice = assay: Formalin test (licking time of the injected paw); assay type: in vivo, white male non-linear mice; details: for I phase, % effect (decrease in the time of licking of the paw): phase 0-5 min; for II phase, effect (decrease in the time of licking of the paw): phase 15-40 min
[3] = system: model of neuropathic pain in rats; assay: Model of neuropathic pain (sciatic nerve ligation), threshold of pain sensitivity by dolorimeter; assay type: in vivo, male Wistar rats; details: for Changes in the threshold of pain perception, regarding healthy limb: damaged vs healthy limb before administration (baseline); for Threshold of pain sensitivity, damaged limb / Threshold of pain sensitivity, healthy limb: day 14 after ligation, before administration (baseline), M±m, n=10; for Threshold of pain sensitivity 2 hours after compounds administration: damaged limb
Method: An evaluation of the antinociceptive action of the test compound (1) on a model of neuropathic pain was carried out on 50 male Wistar rats weighing 270-310 g. The model of neuropathic pain was reproduced by ligation of the sciatic nerve at the level of the upper third of the thigh at the level of the popliteal fossa higher than the site of its trifurcation by N. tibialis, N. peroneus and N. suralis (see Mironov A. N. et al. Guidelines for conducting preclinical studies of drugs. Part one.—Moscow 2012. p. 197-219). The development of the pathological process lasted 14 days. The degree of hyperalgesia was determined using a dolorimeter (Dolorimeter Baseline, USA) by determining the threshold of pain sensitivity (TPS)—the minimum pressure on the lower surface of the rat's foot (g/mm^2), which caused pain in the animal (vocalization and/or withdrawal of the foot). Each animal was given 5 attempts; the threshold value was taken with such a pressure force, which caused a positive response in at least one attempt. The threshold of pain sensitivity was compared on intact and damaged limbs on day 14 after ligation (pathology without treatment), as well as on the injured limb after 2 hours (peak of action) after the drugs administration. The test compound and the reference drug (ketorolac) were administered intragastrally (as gavage) once at doses of 0.5 and 3 mg/kg. Sciatic nerve ligation in animals caused the development of neuropathic pain syndrome, which manifested itself in behavioral reactions of the rat and lowering the threshold of pain sensitivity by an average of 44-48% (see Table 1). The analgesic effect of Compound 1 compared with ketorolac under the conditions of their intragastral administration on the model of neuropathic pain in rats (M±m, n=10, where n is the number of animals in the experiments) is shown in Table 1.

gastric mucosa [4] = assay: Ulcerogenic effect, subchronic experiment (4 days intragastric); assay type: in vivo, rats; details: 50 mg/kg intragastrically for 4 days
Method: The disadvantage of most analgesics is the fact that they have ulcerogenic effect that interferes with their long-term use. We have studied this side effect of Compound 1 in acute and subchronic experiments. In the first scheme, the compound in the form of an aqueous suspension (Tween-80) was administered in single dose intragastrically to rats, which had previously been deprived of food for 16 hours with free access to water. After 3 hours, the animals were euthanized with a cervical dislocation, then, after dissection of the abdominal cavity, stomachs were ejected and washed in isotonic sodium chloride solution to take out the contents. Damage of stomach was determined visually. In the second scheme, the compound was administered intragastrically for 4 days, after that the extent of the damaging effect on the stomach was determined, as in the previous experiment.
as §1, §2, §3, §4, §5, §6, §7
Compound 1 was administered over a wide dose range—in acute studies—50, 250, 500 and 1000 mg/kg. For the subchronic experiment, the compound was used at a dose of 50 mg/kg.
We also determined the indexes of gastrotoxicity of gastric mucosa under conditions of repeated intragastral administration (for 4 days at a dose of 50 mg/kg). […] The average severity in this group was of 1.4±0.27 score, and the multiplicity was of 1.9±0.64 ulcers per animal. This also indicates the absence of a gastrotoxic effect of this compound on the stomach.

[5] = 0.01 mg/kg intraperitoneally 40 min before formalin
[6] = 0.10 mg/kg intraperitoneally 40 min before formalin
[7] = 3.00 mg/kg intraperitoneally 40 min before formalin

## CCCOC1N=C(c2ccccc2Cl)c2cc(Br)ccc2NC1=O (stereo not drawn) [Compound 1, 7-bromo-5-(o-chlorophenyl)-3-propoxy-1,2-dihydro-3H-1,4-benzodiazepin-2-one]
[1]; 0.5 mg/kg intraperitoneally, 1 hour
  Degree of pain sensitivity threshold increase in relation to the initial level: +27.4%
[1]; 0.5 mg/kg intraperitoneally, 2 hours
  Degree of pain sensitivity threshold increase in relation to the initial level: +38.4%
[1]; 0.5 mg/kg intraperitoneally, 4 hours
  Degree of pain sensitivity threshold increase in relation to the initial level: +42.3%
[1]; 0.5 mg/kg intraperitoneally, 6 hours
  Degree of pain sensitivity threshold increase in relation to the initial level: +34.9%
[1]; 0.5 mg/kg orally, 1 hour
  Degree of pain sensitivity threshold increase in relation to the initial level: +13.2%
[1]; 0.5 mg/kg orally, 2 hours
  Degree of pain sensitivity threshold increase in relation to the initial level: +22.4%
[1]; 0.5 mg/kg orally, 4 hours
  Degree of pain sensitivity threshold increase in relation to the initial level: +21.7%
[1]; 0.5 mg/kg orally, 6 hours
  Degree of pain sensitivity threshold increase in relation to the initial level: +8.77%
[1]; 3 mg/kg orally, 1 hour
  Degree of pain sensitivity threshold increase in relation to the initial level: +60.7%
[1]; 3 mg/kg orally, 2 hours
  Degree of pain sensitivity threshold increase in relation to the initial level: +83.3%
[1]; 3 mg/kg orally, 4 hours
  Degree of pain sensitivity threshold increase in relation to the initial level: +65.2%
[1]; 3 mg/kg orally, 6 hours
  Degree of pain sensitivity threshold increase in relation to the initial level: +39.4%
Gastric mucosa [2]
  Number of animals with different degrees lesions of the gastric mucosa, score 1: 4
  Number of animals with different degrees lesions of the gastric mucosa, score 3: 0
  Number of animals with different degrees lesions of the gastric mucosa, score 4: 0
  The multiplicity of damage: 0.5±0.23
Gastric mucosa [2]; 4-score scale
  Average score: 0.4±0.17
Formalin test in mice; [5]
  I phase, % effect (decrease in the time of licking of the paw): 15.00 ± 4.11%
  II phase, effect (decrease in the time of licking of the paw): 32.10 ± 10.10
Formalin test in mice; [6]
  I phase, % effect (decrease in the time of licking of the paw): 76.00 ± 6.50 %
  II phase, effect (decrease in the time of licking of the paw): 54.00 ± 8.60
Formalin test in mice; [7]
  I phase, % effect (decrease in the time of licking of the paw): 91.10 ± 18.80 %
  II phase, effect (decrease in the time of licking of the paw): 98.4 ± 15.0
Formalin test in mice; Compound 1 at 0.1 mg/kg vs diclofenac sodium at 10 mg/kg, first phase
  Activity in the first phase relative to diclofenac sodium: 1.5 times
[3]; 0.5 mg/kg group
  Changes in the threshold of pain perception, regarding healthy limb: −48.4 ± 4.6%
  Threshold of pain sensitivity, damaged limb: 223.5 ± 20.1 g/mm^2
  Threshold of pain sensitivity, healthy limb: 434.3 ± 13.4 g/mm^2
[3]; 0.5 mg/kg intragastrally once
  Threshold of pain sensitivity 2 hours after compounds administration: 269.3 ± 19.4 g/mm^2
[3]; 3 mg/kg group
  Changes in the threshold of pain perception, regarding healthy limb: −44.3 ± 2.9%
  Threshold of pain sensitivity, damaged limb: 295.7 ± 29.9 g/mm^2
  Threshold of pain sensitivity, healthy limb: 523.6 ± 28.1 g/mm^2
[3]; 3 mg/kg intragastrally once
  Threshold of pain sensitivity 2 hours after compounds administration: 532.8 ± 47.1 g/mm^2
Gastric mucosa [4]
  Macroscopic examination of the gastric mucosa: insignificant decrease in the folding of the gastric mucosa and a rather distinct decrease in the amount of mucus
Gastric mucosa [4]; n=10
  Multiplicity: 1.9±0.64 ulcers per animal
  Number of animals with lesions of the gastric mucosa, score 1: 6
  Number of animals with lesions of the gastric mucosa, score 2: 5
  Number of animals with lesions of the gastric mucosa, score 3: 0
  Number of animals with lesions of the gastric mucosa, score 4: 0
Gastric mucosa [4]; n=10, 4-score scale
  Average severity: 1.4±0.27 score
